The results in this text go back to patent US9938266B2, “Selective BACE1 inhibitors” (Eli Lilly and Company, priority 2015, dated 2018).

One test concerns the target T1, human BACE1(1-460):Fc (Homo sapiens, UniProt P56817).
T1 construct: made in house; host or cells: HEK293 (transient, secreted into conditioned media, Protein A purified)
The test is described as follows: BACE1 FRET Assay. Format: biochemical. Conditions: purified recombinant huBACE1:Fc, n=6, mean±SEM. As to the method: (§1) To assess BACE1 selectivity over BACE2, the test compound is evaluated in FRET-based enzymatic assays using specific substrates for BACE1 and BACE2 as described below. For in vitro enzymatic and cellular assays, the test compound is prepared in DMSO to make up a 10 mM stock solution. The stock solution is serially diluted in DMSO to obtain a ten-point dilution curve with final compound concentrations ranging from 10 μM to 0.05 nM in a 96-well round-bottom plate before conducting the in vitro enzymatic and whole cell assays.
Human BACE1 (accession number: AF190725) and human BACE2 (accession number: AF 204944) are cloned from total brain cDNA by RT-PCR. The nucleotide sequences corresponding to amino acid sequences #1 to 460 are inserted into the cDNA encoding human IgG1 (Fc) polypeptide (Vassar et al., Science, 286, 735-742 (1999)). […]
(§2) Conditioned media of HEK293 cell transiently transfected with huBACE1:Fc or huBACE2:Fc cDNA are collected. […] The purity of final product is assessed by electrophoresis in 4-20% Tris-Glycine SDS-PAGE. […]
Serial dilutions of the test compounds are prepared as described above. […] The RFU of the mixture at time 0 is recorded at excitation wavelength 355 nm and emission wavelength 460 nm, after brief mixing on a plate shaker. […] The RFU at the end of incubation is recorded with the same excitation and emission settings used at time 0. […]

The target in the next test is T2, beta-secretase (Mus musculus, UniProt P56818).
T2 construct: from tissue; host or cells: brain (hippocampus, cortex) of young female PDAPP mice, in vivo
T2 sequence (P56818 46-501): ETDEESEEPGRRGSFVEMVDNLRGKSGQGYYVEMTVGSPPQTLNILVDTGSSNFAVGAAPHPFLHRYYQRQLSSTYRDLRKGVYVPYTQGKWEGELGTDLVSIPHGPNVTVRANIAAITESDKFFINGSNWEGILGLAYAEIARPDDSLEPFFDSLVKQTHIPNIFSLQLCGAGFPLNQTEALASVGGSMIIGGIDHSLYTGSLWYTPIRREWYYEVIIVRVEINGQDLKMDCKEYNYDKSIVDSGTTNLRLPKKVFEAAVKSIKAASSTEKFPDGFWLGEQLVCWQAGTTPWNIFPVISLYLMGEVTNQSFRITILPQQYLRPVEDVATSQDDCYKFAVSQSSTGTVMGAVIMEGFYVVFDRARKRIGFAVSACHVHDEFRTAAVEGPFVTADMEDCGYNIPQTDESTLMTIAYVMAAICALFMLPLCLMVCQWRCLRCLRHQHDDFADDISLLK
In words: In Vivo Inhibition of Beta-Secretase (brain Abeta 1-x, PDAPP mice). Conditions: young female PDAPP mice, three hours, vs vehicle; for Abeta 1-x peptide levels reduced in brain cortex: p<0.01. An excerpt: Several animal models, including mouse, guinea pig, dog, and monkey, may be used to screen for inhibition of beta-secretase activity in vivo following compound treatment. Animals used in this invention can be wild type, transgenic, or gene knockout animals. For example, the PDAPP mouse model, prepared as described in Games et al., Nature 373, 523-527 (1995), and other non-transgenic or gene knockout animals are useful to analyze in vivo inhibition of Abeta and sAPPbeta production in the presence of inhibitory compounds. Generally, 2 month old PDAPP mice, gene knockout mice or non-transgenic animals are administered compound formulated in vehicles, such as corn oil, beta-cyclodextran, phosphate buffers, PHARMASOLVE®, or other suitable vehicles via oral, subcutaneous, intra-venous, feeding, or other route of administration. One to twenty-four hours following the administration of compound, animals are sacrificed, and brains are removed for analysis of Abeta 1-x. “Abeta 1-x” as used herein refers to the sum of Abeta species that begin with residue 1 and end with a C-terminus greater than residue 28. This detects the majority of Abeta species and is often called “total Abeta”. Total Abeta peptides (Abeta 1-x) levels are measured by a sandwich ELISA, using monoclonal 266 as a capture antibody and biotinylated 3D6 as reporting antibody. (See May, et al., Journal of Neuroscience, 31, 16507-16516 (2011)).
For acute studies, compound or appropriate vehicle is administered and animals are sacrificed at about 3 hours after dosing. Brain tissue, is obtained from selected animals and analyzed for the presence of Abeta 1-x. After chronic dosing brain tissues of older APP transgenic animals may also be analyzed for the amount of beta-amyloid plaques following compound treatment.
For Example 1, three hours following a 3, 10, and 30 mg/kg oral dose of the compound to young female PDAPP mice, Abeta 1-x peptide levels are reduced approximately 22%, 42%, and 51% in brain hippocampus and 26%, 43%, and 59% in brain cortex p<0.01, compared to vehicle-treated mice.

The target of the next test is T3, human BACE2 (1-460):Fc (Homo sapiens, UniProt Q9Y5Z0).
T3 construct: made in house; host or cells: HEK293 (transient, secreted into conditioned media, Protein A purified)
T3 sequence (Q9Y5Z0 21-460): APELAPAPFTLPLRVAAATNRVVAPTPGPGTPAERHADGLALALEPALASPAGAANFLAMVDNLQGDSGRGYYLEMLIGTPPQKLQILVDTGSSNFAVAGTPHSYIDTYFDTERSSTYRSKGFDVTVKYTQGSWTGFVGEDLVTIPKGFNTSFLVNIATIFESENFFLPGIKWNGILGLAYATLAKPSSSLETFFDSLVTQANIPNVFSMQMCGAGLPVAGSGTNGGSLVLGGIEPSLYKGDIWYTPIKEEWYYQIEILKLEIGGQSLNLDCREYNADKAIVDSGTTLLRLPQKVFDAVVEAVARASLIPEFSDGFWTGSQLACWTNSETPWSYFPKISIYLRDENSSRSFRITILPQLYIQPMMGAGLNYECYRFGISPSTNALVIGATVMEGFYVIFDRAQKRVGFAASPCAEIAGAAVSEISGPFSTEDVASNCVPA
In words: BACE2 TMEM27 FRET Assay. The format is biochemical. As for the experimental part:
as §1
Human BACE1 (accession number: AF190725) and human BACE2 (accession number: AF 204944) are cloned from total brain cDNA by RT-PCR. […]
as §2
Transmembrane protein 27 (TMEM27) (Accession Number NM_020665), also known as Collectrin) is a recently described substrate for BACE2, but not BACE1 (Esterhazy, et al, Cell Metabolism, 14, 365-377 (2011)). […] The RFU of the mixture at time 0 is recorded at excitation wavelength 430 nm and emission wavelength 535 nm. […] The RFU at the end of incubation is recorded with the same excitation and emission settings used at time 0. […]

The next test concerns the target T4, BACE1 (Homo sapiens, UniProt P56817).
T4 construct: endogenous in cells; host or cells: SH-SY5Y (ATCC CRL2266) stably expressing human APP695Wt
In words: SH-SY5YAPP695Wt Whole Cell Assay (Abeta ELISA). Conditions: SH-SY5YAPP695Wt cells, 24 hours. Format: cell-based. As for the experimental part:
as §1
The routine whole cell assay for the measurement of inhibition of BACE1 activity utilizes the human neuroblastoma cell line SH-SY5Y (ATCC Accession No. CRL2266) stably expressing a human APP695Wt cDNA. Cells are routinely used up to passage number 6 and then discarded.
SH-SY5YAPP695Wt cells are plated in 96 well tissue culture plates at 5.0×10^4 cells/well in 200 μL culture media (50% MEM/EBSS and Ham's F12, 1× each sodium pyruvate, non-essential amino acids and Na bicarbonate containing 10% FBS). The following day, media is removed from the cells, fresh media added then incubated at 37° C. for 24 hours in the presence/absence of test compound at the desired concentration range.
At the end of the incubation, conditioned media are analyzed for evidence of beta-secretase activity by analysis of Abeta peptides 1-40 and 1-42 by specific sandwich ELISAs. […]
A general note: ELISA stands for enzyme-linked immunosorbent assay.

Read-outs that look alike come from different tables or passages of the source.

T4 sequence (P56817 46-501): as the sequence (P56818 46-501) above, with S6P, I162V, I165L, T180S, A182V, V340I, A393L, H443Q counted along it
T1 sequence (P56817 22-460): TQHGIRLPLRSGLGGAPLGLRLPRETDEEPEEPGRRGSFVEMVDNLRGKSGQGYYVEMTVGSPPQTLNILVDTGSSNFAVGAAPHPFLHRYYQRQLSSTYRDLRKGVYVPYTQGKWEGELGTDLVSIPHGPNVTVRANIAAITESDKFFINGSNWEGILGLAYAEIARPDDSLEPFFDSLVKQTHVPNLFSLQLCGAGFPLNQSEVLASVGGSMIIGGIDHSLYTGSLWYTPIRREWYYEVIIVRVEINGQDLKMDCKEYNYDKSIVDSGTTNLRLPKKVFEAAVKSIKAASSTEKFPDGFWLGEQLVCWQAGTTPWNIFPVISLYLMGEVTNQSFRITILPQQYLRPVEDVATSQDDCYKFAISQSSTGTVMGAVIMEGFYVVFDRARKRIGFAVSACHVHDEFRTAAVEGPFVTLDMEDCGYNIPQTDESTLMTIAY

The term IC50 denotes the midpoint of a concentration-inhibition curve. Turning to `NC1=N[C@@]2(c3cc(NC(=O)c4cnc(-n5cncn5)cn4)ccc3F)C[C@@H](OC3CC3)C[C@H]2CS1` [Example 1, N-[3-[(4aR,6S,7aS)-2-Amino-6-(cyclopropoxy)-4a,5,6,7-tetrahydro-4H-cyclopenta[d][1,3]thiazin-7a-yl]-4-fluoro-phenyl]-5-(1,2,4-triazol-1-yl)pyrazine-2-carboxamide], the IC50 is 0.955 ± 0.093 nM at human BACE1(1-460):Fc; 87.3 ± 11.1 nM on human BACE2 (1-460):Fc (huBACE2:Fc, TMEM27 FRET substrate, n=4, mean±SEM); 0.43 ± 0.08 nM on BACE1 (n=3, mean±SEM, read-out: IC50 SH-SY5YAPP695Wt A-beta (1-42) ELISA); 0.38 ± 0.14 nM on BACE1 (n=4, mean±SEM, read-out: IC50 SH-SY5YAPP695Wt A-beta (1-40) ELISA). For the same compound, the “Abeta 1-x peptide levels reduced in brain hippocampus” value was “approximately 22%” on beta-secretase (3 mg/kg oral), approximately 42% at beta-secretase (10 mg/kg oral) and approximately 51% at beta-secretase (30 mg/kg oral). In addition, the “Abeta 1-x peptide levels reduced in brain cortex” value is given as approximately 26% at beta-secretase (3 mg/kg oral), approximately 43% at beta-secretase (10 mg/kg oral) and approximately 59% at beta-secretase (30 mg/kg oral). Also, the “ratio of BACE2 IC50 (TMEM27 FRET) to BACE1 IC50 (FRET)” value on human BACE2 (1-460):Fc (selectivity for BACE1 over BACE2) is listed as “about 91 fold”.
